Laboratory results as given in patent US20070178045A1, “Cyclopeptide derivatives with anti-integrin activity” (priority 2004, published 2007).
Where “and” joins values, the source holds several entries; their conditions need not be identical. Equal entries are not always repeated.

Key:
[1] = tested on: PC3 prostate carcinoma cells; assay type: cell-based, human; settings: read-out: PC3 IC50, μM 3 h of treatm., cell adhesion to vitronectin, PC3 low levels of both integrins
Protocol: (§1) Adhesion Assay of Tumor Cells on Vitronectin
(§2) A2780 human ovarian carcinoma and PC3 prostate carcinoma cells were grown in RPMI 1640 containing 10% fetal bovine serum and 50 μg/ml gentamycin sulfate. A498 human renal carcinoma were grown in EMEM containing 10% fetal bovine serum and 50 μg/ml gentamycin sulfate. All the cells were maintained in a 37° C. incubator with saturated humidity and an atmosphere of 95% air and 5% CO2.
(§3) A2780 cell line expresses high levels of αvβ5 integrins, A498 high levels of αvβ3 integrins, and PC3 low levels of both integrins.
To test the effect of the drugs on cell adhesion, the appropriate cellular density (40000-50000 cells/well) for each tumor cell line was incubated with different concentrations of the compounds in 96-well tissue culture plates coated with vitronectin (5 μg/ml) and was allowed to attach for 3 hours. After this time the cells were washed once with PBS containing Ca^2+ e Mg^2+. Tumor cells were fixed with 4% paraformaldehyde for 10 min at room temperature and stained with 1% toluidine blue for 10 min at room temperature. […] The number of adherent cells was determined in a microplate reader (Victor2, EG&G Wallac) at 600 nm.
(§4) An IC50 value as parameter to measure the inhibiting effect of the molecules on tumor cell adhesion to vitronectin was evaluated using “ALLFIT” computer program.

[2] = tested on: A2780 human ovarian carcinoma; assay type: cell-based; settings: read-out: A2780 IC50, μM 3 h of treatm., cell adhesion to vitronectin, A2780 high levels of αvβ5 integrins
Protocol: as §1, §2, §3
(§5) To test the effect of the drugs on cell adhesion, the appropriate cellular density (40000-50000 cells/well) for each tumor cell line was incubated with different concentrations of the compounds in 96-well tissue culture plates coated with vitronectin (5 μg/ml) and was allowed to attach for 3 hours. After this time the cells were washed once with PBS containing Ca^2+ e Mg^2+. Tumor cells were fixed with 4% paraformaldehyde for 10 min at room temperature and stained with 1% toluidine blue for 10 min at room temperature. Tumor cells were washed with bi-distilled water, dried and solubilized with 1% SDS. The number of adherent cells was determined in a microplate reader (Victor2, EG&G Wallac) at 600 nm.
as §4

[3] = tested on: A498 human renal carcinoma; assay type: cell-based; settings: read-out: A498 IC50, μM 3 h of treatm., cell adhesion to vitronectin, A498 high levels of αvβ3 integrins
Protocol: as §1, §2, §3, §5, §4

purified αvβ5 receptor = target: T1, purified αvβ5 receptor (Homo sapiens, UniProt P06756+P18084); assay: Binding to integrin αvβ5 receptors ([125I]echistatin competition); settings: inhibition of [125I]echistatin 0.15 nM binding to purified αvβ5 receptor; read-out: αvβ5 IC50 ± SD
T1 construct: purchased Chemicon CC1020
Protocol: Binding to Integrin αvβ5 Receptors
(§6) An aliquot of 100 μl was added to 96-well plates and incubated overnight at +4° C. Plates were washed once with buffer (50 mM Tris, pH 7.4, 100 mM NaCl, 2 mM CaCl2, 1 mM MgCl2, 1 mM MnCl2, 1% bovine serum albumin) and then incubated for another 2 hours at room temperature. Plates were washed twice with the same buffer and incubated for 3 hours at room temperature with the radioactive ligand [^125I]echistatin (Amersham Pharmacia Biotech) 0.15 nM in the presence of competition ligands. At the end of incubation, the wells were washed and the radioactivity determined using a gamma counter (Packard). Non-specific ligand binding was determined in the presence of excess cold echistatin (1 μM).
(§7) Evaluation of IC50 Parameters
(§8) The IC50 parameter was elaborated using “ALLFIT” software.

purified αvβ3 receptor = target: T2, purified αvβ3 receptor (Homo sapiens, UniProt P05106+P06756); assay: Binding to integrin αvβ3 receptors ([125I]echistatin competition); settings: inhibition of [125I]echistatin 0.05 nM binding to purified αvβ3 receptor; read-out: αvβ3 IC50 ± SD
T2 construct: purchased Chemicon CC1020
Protocol: Binding to Integrin αvβ3 Receptors
as §6, with “0.05” for “0.15”, “Non-specific binding of the” for “Non-specific”, “ligand” for “ligand binding”
as §7, §8

Row | Structure (SMILES) | IC50 (purified αvβ5 receptor) [µM] | IC50 (purified αvβ3 receptor) | IC50 [1] [µM] | IC50 [2] [µM] | IC50 [3] [µM]
1 | N=C(N)NCCC[C@@H]1NC(=O)[C@H](Cc2ccc(CNC(=O)COCCOCCOCC(=O)O)cc2)NC(=O)[C@@H](Cc2ccccc2)NC(=O)[C@H](CC(=O)O)NC(=O)CNC1=O [ST2661, c[Arg-Gly-Asp-D-Phe-Amp-(CO—CH2—(O—CH2—CH2)2—O—CH2—COOH]] |  |  | 18.8 ± 4.4 | 12.3 ± 0.9 | 10.7 ± 0.4
2 | N=C(N)NCCC[C@@H]1NC(=O)[C@H](Cc2ccc(CNC(=O)CCC(=O)O)cc2)NC(=O)[C@@H](Cc2ccccc2)NC(=O)[C@H](CC(=O)O)NC(=O)CNC1=O [ST2649, c[Arg-Gly-Asp-D-Phe-Amp-(CH2)2COOH]] | 0.0051 ± 7e-05 | 0.0376 ± 0.0009 µM | 33.7 ± 7.8 | 9.5 ± 1.9 | 34 ± 2.2
3 | CN1C(=O)[C@@H](Cc2ccccc2)NC(=O)[C@H](CC(=O)O)NC(=O)CNC(=O)[C@H](CCCNC(=N)N)NC(=O)[C@@H]1Cc1ccc(CN)cc1 [ST2700, c(Arg-Gly-Asp-D-Phe-N-Me-Amp)] | 0.00099 | 0.007 µM and 0.0072 µM |  |  | 
4 | COCCOCCOCCOCC(=O)NCc1ccc(C[C@@H]2NC(=O)[C@@H](Cc3ccccc3)NC(=O)[C@H](CC(=O)O)NC(=O)CNC(=O)[C@H](CCCNC(=N)N)NC2=O)cc1 [ST2597, c[Arg-Gly-Asp-D-Phe-Amp(CO—CH2—(OCH2CH2)3—OCH3)]] | 0.0021 ± 7e-05 | 0.0135 ± 0.0008 µM |  |  | 
5 | N=C(N)NCCC[C@@H]1NC(=O)[C@H](Cc2ccc(CN)cc2)NC(=O)[C@@H](Cc2ccccc2)NC(=O)[C@H](CC(=O)O)NC(=O)CNC1=O [ST2581, c(Arg-Gly-Asp-D-Phe-Amp)] | 0.0034 ± 0.0001 | 0.0017 µM |  |  | 

More lines, main results first:

Row | IC50 (purified αvβ5 receptor) [µM] | IC50 (purified αvβ3 receptor) | Structure (SMILES) | IC50 [1] [µM] | IC50 [2] [µM] | IC50 [3] [µM]
6 | 0.034 ± 0.0014 | 0.03 ± 0.0009 µM | CC(C)[C@H]1C(=O)N[C@@H](CCCNC(=N)N)C(=O)NCC(=O)N[C@@H](CC(=O)O)C(=O)N[C@H](Cc2ccccc2)C(=O)N1CCCCCC(=O)O [ST2956, c[Arg-Gly-Asp-D-Phe-N(carboxypentilene)-Val)]] |  |  | 
7 | 0.0029 ± 0.0001 | 0.0367 ± 0.0007 µM | N=C(N)NCCC[C@@H]1NC(=O)CN(Cc2ccc(CN)cc2)C(=O)[C@@H](Cc2ccccc2)NC(=O)[C@H](CC(=O)O)NC(=O)CNC1=O [ST2701, c(Arg-Gly-Asp-D-Phe-N-Amb-Gly)] |  |  | 
8 | 0.0383 ± 0.0013 | 0.0422 ± 0.0007 µM | C=CCOC(=O)CCCCCN1C(=O)[C@@H](Cc2ccccc2)NC(=O)[C@H](CC(=O)O)NC(=O)CNC(=O)[C@H](CCCNC(=N)N)NC(=O)[C@@H]1C(C)C [ST2957, c[Arg-Gly-Asp-D-Phe-N(allyloxycarbonylpentilene)-Val]] |  |  | 
